Results as given in US6960646B2, “Cyclic peptides as potent and selective melanocortin-4 receptors agonists” (Merck & Co., Inc., priority 2001, dated 2005).
“Also recorded” adds a separate entry of the source. Starred links: 1 amine or outer side, 2 acyl side, 3 side chain; linkers in the order of their positions; H or OH if unused. Positions of bridges follow the written chain, without caps; N, C: chain ends. Non-standard residues stand in square brackets, D forms with d. Residues, ends and D or L forms follow the SMILES beside them. ξ: configuration not given here. dPhe(4-Cl) = N[C@H](Cc1ccc(Cl)cc1)C(=O)O; 2Nal = N[C@@H](Cc1ccc2ccccc2c1)C(=O)O; Suc = O=C(CCC(=O)[*:2])[*:1]; ξE = NC(CCC(=O)O)C(=O)O; ξDab = NCCC(N)C(=O)O; ξK = NCCCCC(N)C(=O)O; ξDap = NCC(N)C(=O)O; Ava = NCCCCC(=O)O; GABA = NCCCC(=O)O; βAla = NCCC(=O)O

How the values were obtained:
[1] = biological target: T1, hMC-3R (Homo sapiens, UniProt P41968); test: Competitive binding assay, [125I]-NDP-α-MSH, CHO cell membranes; details: 200 pM [125I]-NDP-α-MSH, read-out: Binding Assay IC50 hMC-3R
T1 construct: expressed in transfected cells; host or cells: Chinese hamster ovary (CHO) cells
Description: (§1) The peptides of the present invention were evaluated for agonist activity in receptor binding assay. Crude membrane preparations were obtained from Chinese hamster ovary cells expressing human MC3, MC4, and MC5 receptors. Cells were rinsed with phosphate-buffered saline (PBS) lacking CaCl2 or MgCl2 (Life Technologies, Gaithersburg, Md., USA), and then detached with enzyme-free dissociation media (Specialty Media, Lavellette, N.J., USA). Cells were pelleted at 2800×g for 10 minutes and resuspended in membrane buffer (20 mM Tris, pH 7.2, 5 mM ethylenediaminetetraacetic acid) with 5 μg/ml leupeptin, 5 μg/ml aprotinin, 40 μg/ml bacitracin, and 25 μg/ml pefabloc (Boehringer Mannheim). The cells were […] with 10 strokes by using a motor-driven Teflon-coated pestle in a glass homogenizer at low speed. The resulting cell suspension was centrifuged at 4100×g, 4° C., for 20 minutes. The pellet was resuspended in fresh membrane buffer with protease inhibitors, aliquoted, snap-frozen in liquid nitrogen, and stored at −80° C. The resulting crude membranes were titrated to determine the optimal level necessary for performing binding studies.
(§2) Binding reactions (total volume=250 μl) contained MBB (50 mM Tris, pH 7.2, 2 mM CaCl2, 1 mM MgCl2), 0.1% bovine serum albumin, crude membranes prepared from cells expressing human MC3, MC4, or MC5 receptor, 200 pM of [125I]-NDP-α-MSH (Amersham, Arlington Heighs, Ill., USA), and increasing concentrations of unlabeled test compounds dissolved in dimethylsulfoxide (final concentration=2%). Reactions were incubated for 1 hour without shaking and then filtered through 96-well filter plates (Packard), presoaked in 1% polyethyleneimine. Filters were washed 3 times with TNE buffer (50 mM Tris, pH 7.4, 5 mM ethylene-diaminetetraacetic acid, 150 mM NaCl), dried and counted by using Microscint-20 in a Topcount scintillation counter (Packard). Nonspecific binding was determined in the presence of 2 μm of unlabeled NDP-α-MSH (Peninsula Laboratories). Active peptides were evaluated in three independent experiments.

[2] = biological target: T2, hMC-4R (Homo sapiens, UniProt P32245); test: as above; details: 200 pM [125I]-NDP-α-MSH, read-out: Binding Assay IC50 hMC-4R
T2 construct: expressed in transfected cells; host or cells: Chinese hamster ovary (CHO) cells
Description: as §1, §2

[3] = biological target: T3, hMC-5R (Homo sapiens, UniProt P33032); test: as above; details: 200 pM [125I]-NDP-α-MSH, read-out: Binding Assay IC50 hMC-5R
T3 construct: expressed in transfected cells; host or cells: Chinese hamster ovary (CHO) cells
Description: as §1, §2

[4] = biological target: T1, hMC-3R; test: cAMP assay in CHO cells expressing a human melanocortin receptor; format: cell-based; details: 45 minutes at room temperature
Description: (§3) Chinese hamster ovary cells expressing a human melanocortin receptor were rinsed with calcium- and magnesium-free PBS (Life Technologies), and detached from the tissue culture flasks by 5-minutes incubation with enzyme-free dissociation buffer (S-014-B, Specialty Media). Cells were collected by centrifugation and resuspended in Earle's balanced salt solution (Life Technologies) with addition of 10 mM 4-(2-hydroxyethyl)-1-piperazineethanesulfonic acid (Hepes) buffer, pH 7.5, 5 mM MgCl2, 1 mM glutamine, and 1 mg/ml bovine serum albumin to concentration of 1-5×10^6 cells/ml. Subsequently, cells were counted and the cell suspension was treated with the phosphodiesterase inhibitor 3-isobutyl-1-methylxanthine (to concentration of 0.6 mM).
(§4) A test compound was dissolved in dimethyl sulfoxide (DMSO, 10^−3 to 10^−8 M), diluted with buffer, and 0.1 volume of the solution was added to 0.9 volumes of the cell suspension (1 to 5×10^5 cells); final concentration of DMSO was 1%. After 45 minutes at room temperature, cells were lysed by incubation at 100° C. for 5 minutes to release accumulated cAMP. Accumulation of cAMP was measured in an aliquot of the cell lysate with the Amersham (Arlington Heights, Ill.) cAMP detection assay kit (RPA556). The amount of cAMP produced in response to a tested compound was compared to the amount of cAMP produced in response to α-MSH, defined as a 100% agonist. All active peptides were characterized in three independent experiments.

[5] = biological target: T2, hMC-4R; test: as above; format: cell-based; details: 45 minutes at room temperature
Description: as §3, §4

[6] = biological target: T3, hMC-5R; test: as above; format: cell-based; details: for EC50: CHO cells, 45 minutes at room temperature; for CAMP Assay hMC-5R, % activation at a single concentration: @ 5 (concentration unit not given), relative to α-MSH defined as a 100% agonist
Description: as §3, §4

[7] = rats, cited from earlier work; for Food intake: intraventricular administration / injection

T2 sequence (P32245 whole entry): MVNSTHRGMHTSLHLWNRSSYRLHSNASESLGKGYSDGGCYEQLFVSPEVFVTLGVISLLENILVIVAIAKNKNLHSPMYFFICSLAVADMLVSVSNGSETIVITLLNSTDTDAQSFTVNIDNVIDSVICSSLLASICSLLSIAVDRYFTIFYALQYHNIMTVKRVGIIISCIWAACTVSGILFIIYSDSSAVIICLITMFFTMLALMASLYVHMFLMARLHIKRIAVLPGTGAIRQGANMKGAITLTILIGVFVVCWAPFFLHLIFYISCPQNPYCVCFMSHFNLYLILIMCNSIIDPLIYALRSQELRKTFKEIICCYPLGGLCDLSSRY
T3 sequence (P33032 whole entry): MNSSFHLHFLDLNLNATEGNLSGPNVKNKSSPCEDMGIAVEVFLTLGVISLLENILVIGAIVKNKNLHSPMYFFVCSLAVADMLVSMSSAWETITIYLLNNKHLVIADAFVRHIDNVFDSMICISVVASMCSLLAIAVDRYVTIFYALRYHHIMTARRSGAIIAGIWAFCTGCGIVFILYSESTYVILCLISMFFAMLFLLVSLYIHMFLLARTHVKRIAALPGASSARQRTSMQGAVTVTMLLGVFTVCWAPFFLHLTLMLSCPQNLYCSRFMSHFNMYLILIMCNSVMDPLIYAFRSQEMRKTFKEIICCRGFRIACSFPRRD
T1 sequence (P41968 whole entry): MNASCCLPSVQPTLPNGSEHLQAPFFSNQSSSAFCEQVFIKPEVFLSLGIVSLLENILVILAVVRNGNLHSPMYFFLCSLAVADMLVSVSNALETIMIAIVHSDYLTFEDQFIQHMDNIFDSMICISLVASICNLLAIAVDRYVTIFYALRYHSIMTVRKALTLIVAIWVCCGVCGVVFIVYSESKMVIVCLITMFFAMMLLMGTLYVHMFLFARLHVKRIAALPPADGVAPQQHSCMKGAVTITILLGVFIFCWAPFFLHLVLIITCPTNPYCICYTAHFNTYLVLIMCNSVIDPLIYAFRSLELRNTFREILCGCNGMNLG

| Compound | IC50 [1] [nM] | IC50 [2] [nM] | IC50 [3] [nM] | EC50 [4] [nM] | EC50 [5] [nM] | EC50 [6] [nM] | CAMP Assay hMC-5R, % activation at a single concentration [6] [% @ 5] | Food intake [7] | Body weight ([7]; intraventricular administration) |
| --- | --- | --- | --- | --- | --- | --- | --- | --- | --- |
| N=C(N)NCCC[C@@H]1NC(=O)[C@@H](Cc2ccccc2)NC(=O)[C@H](Cc2c[nH]cn2)NC(=O)CCC(=O)NCCCCC(C(N)=O)NC(=O)[C@H](Cc2c[nH]c3ccccc23)NC1=O (some centres unmarked) [Example 1] (H[dF]RW[ξK]-NH2; linker N-5 via Suc) | 418 | 25 | 3100 | 110 | 3.3 | 1180 |  |  |  |
| N=C(N)NCCC[C@@H]1NC(=O)[C@@H](Cc2ccccc2)NC(=O)[C@H](Cc2c[nH]cn2)NC(=O)CCC(=O)NCCC(C(N)=O)NC(=O)[C@H](Cc2c[nH]c3ccccc23)NC1=O (some centres unmarked) [Example 2] (H[dF]RW[ξDab]-NH2; linker N-5 via Suc) | 1800 | 35 | 7200 | 240 | 2.9 | 2200 |  |  |  |
| N=C(N)NCCC[C@@H]1NC(=O)[C@@H](Cc2ccccc2)NC(=O)[C@H](Cc2c[nH]cn2)NC(=O)CCC(=O)NCC(C(N)=O)NC(=O)[C@H](Cc2c[nH]c3ccccc23)NC1=O (some centres unmarked) [Example 3] (H[dF]RW[ξDap]-NH2; linker N-5 via Suc) | 1600 | 71 | 3600 | 590 | 33 |  | 12 |  |  |
| N=C(N)NCCC[C@@H]1NC(=O)[C@@H](Cc2ccc(Cl)cc2)NC(=O)[C@H](Cc2c[nH]cn2)NC(=O)CCC(=O)NCCCCC(C(N)=O)NC(=O)[C@H](Cc2c[nH]c3ccccc23)NC1=O (some centres unmarked) [Example 4] (H[dPhe(4-Cl)]RW[ξK]-NH2; linker N-5 via Suc) | 17 | 1.7 | 92 | 40 | 0.74 | 170 |  |  |  |
| N=C(N)NCCC[C@@H]1NC(=O)[C@@H](Cc2ccccc2)NC(=O)[C@H](Cc2c[nH]cn2)NC(=O)CCC(=O)NCCCCC(C(N)=O)NC(=O)[C@H](Cc2ccc3ccccc3c2)NC1=O (some centres unmarked) [Example 5] (H[dF]R[2Nal][ξK]-NH2; linker N-5 via Suc) | 440 | 13 | > 20000 | 360 | 3.7 | > 5000 |  |  |  |
| N=C(N)NCCC[C@@H]1NC(=O)[C@@H](Cc2ccccc2)NC(=O)[C@H](Cc2c[nH]cn2)NC(=O)CCCCNC(=O)CCC(C(N)=O)NC(=O)[C@H](Cc2c[nH]c3ccccc23)NC1=O (some centres unmarked) [Example 6] ([Ava]H[dF]RW[ξE]-NH2; lactam N-6) | 580 | 12 | 9000 | 190 | 2.7 | 1900 |  |  |  |
| N=C(N)NCCC[C@@H]1NC(=O)[C@@H](Cc2ccccc2)NC(=O)[C@H](Cc2c[nH]cn2)NC(=O)CCCNC(=O)CCC(C(N)=O)NC(=O)[C@H](Cc2c[nH]c3ccccc23)NC1=O (some centres unmarked) [Example 7] ([GABA]H[dF]RW[ξE]-NH2; lactam N-6) | 1830 | 41 | > 5000 | 310 | 5.7 | > 5000 |  |  |  |
| N=C(N)NCCC[C@@H]1NC(=O)[C@@H](Cc2ccccc2)NC(=O)[C@H](Cc2c[nH]cn2)NC(=O)CCNC(=O)CCC(C(N)=O)NC(=O)[C@H](Cc2c[nH]c3ccccc23)NC1=O (some centres unmarked) [Example 8] ([βAla]H[dF]RW[ξE]-NH2; lactam N-6) | 450 |  | 5050 |  |  |  |  |  |  |
| N=C(N)NCCC[C@@H]1NC(=O)[C@@H](Cc2ccccc2)NC(=O)[C@H](Cc2c[nH]cn2)NC(=O)CNC(=O)CCC(C(N)=O)NC(=O)[C@H](Cc2c[nH]c3ccccc23)NC1=O (some centres unmarked) [Example 9] (GH[dF]RW[ξE]-NH2; lactam N-6) | > 1000 | 290 | > 1000 | 2200 | 35 |  | 15 |  |  |
| MTII |  |  |  |  |  |  |  | reduced food intake |  |
| SHU9119 |  |  |  |  |  |  |  | increased food intake; also recorded: stimulates food intake | increased food intake and body weight |
